Test results as given in patent publication US11091512B2, “Modulation of antigen immunogenicity by deleting epitopes recognized by NKT cells” (Imnate Sarl, priority 2010, dated 2021).
Where a chain is given by its changes, count along the chain named. Numbers in names are those of the source. Entries after “also recorded” stand apart in the source; their conditions may differ.

How the values were obtained:
CD4+ NKT cells = experiment: intranasal Der p 1 in BALB/c mice, spleen CD4+ T cells stained with peptide-loaded CD1d tetramers (facs); assay type: in vivo; settings: for percentage of CD4+ T cells stained with CD1d tetramers loaded with peptide: mice given natural sequence Der p 1 intranasally, 100 μg
Procedure: Peptides of SEQ ID13, SEQ ID14 and SEQ ID15 were synthesized and used to load CD1d tetramers.
BALB/c mice were submitted to intranasal administration of Der p 1, using 50 μl of saline containing 100 μg of Der p 1. This challenge procedure was repeated twice on three consecutive days at one-week interval. The mice were sacrificed 5 days after the last nasal instillation and the spleen was removed. CD4+ T cells were purified by magnetic bead sorting and incubated in the presence of the CD1d tetramers loaded with peptides of SEQ ID13, SEQ ID14 or SEQ ID15. By fluorescence-activated cell sorter (facs) determination, it was observed that a significant percentage of cells (±10%) were stained with the tetramers, identifying them as CD4+ NKT cells. It was therefore concluded that peptides of SEQ ID13, SEQ ID14 and SEQ ID15 were functional in binding to CD1d and in being recognized by NKT cells.
Next, a mutated form of Der p 1 was prepared by genetic engineering, in which the 3 aminoacid residues predicted to be in position P1 for CD binding of peptides of SEQ ID13, SEQ ID14 and SEQ ID15 were substituted by serine. The mutated Der p 1 (SEQ ID16) was used for nasal instillation as described above with Der p 1 in natural sequence (SEQ ID17).

NKT cells [1] = experiment: human CD1d tetramers loaded with peptides, recognition by NKT cells; assay type: cell-based; settings: Mal d 1 peptides
Procedure: (§1) Synthetic peptides corresponding to SEQ ID9 and SEQ ID10 were produced. Their capacity to activate NKT cells was determined in vitro using human dendritic cells derived from peripheral blood monocytes of an individual sensitized to Mal d 1. Dendritic cells loaded with each one of the two peptides were incubated in the presence of NKT cells obtained from the same individual by sorting peripheral lymphocytes using specific markers such as CD4 and NKG2D.
(§2) As for Mal d 1, human CD1d tetramers loaded with a synthetic peptide representing the motif identified in the polypeptide of […]

NKT cells [2] = experiment: activation of NKT cells in vitro by human dendritic cells loaded with peptide or polypeptide; assay type: cell-based
Procedure: as §1, §2

NKT cells [3] = experiment: human CD1d tetramers loaded with IgG peptides, peripheral blood CD4+ T cells of patients given a therapeutic antibody (facs); assay type: cell-based; settings: patients injected with a therapeutic antibody during the previous 5 days
Procedure: Synthetic peptides corresponding to SEQ ID18, SEQ ID19 and SEQ ID20 were produced and used to load human CD1d tetramers as for the examples above (see for instance example 4 for allergen Der p 1). Peripheral blood cells were obtained by venous puncture of patients who had received an injection of a therapeutic antibody during the previous 5 days. CD4+ T cells were purified by magnetic bead sorting. The cells were then incubated with tetramers loaded with peptides of SEQ ID18, SEQ ID19 or SEQ ID20. Analysis by facs identifies a significant proportion of NKT cells (±10%) labeled by tetramers.

NKT cells [4] = experiment: CD1d tetramers loaded with FVIII peptides incubated with spleen CD4+ T cells of FVIII-immunized hemophilia A mice, Facs; assay type: cell-based; settings: for binding of CD1d tetramers loaded with peptide: spleen CD4+ T cells of hemophilia A mice injected IV with FVIII 2 IU on 4 occasions, 15 aminoacid long peptides
Procedure: To determine whether these sequences could activate NKT cells in vivo, FVIII (2 IU) was injected intravenously to hemophilia A mice on 4 occasions separated by a 1-week interval. Hemophilia A mice produce no FVIII due to a stop codon introduced in the FVIII gene in exon 16.
Mice were sacrificed 10 days after the last injection, the spleen was removed and CD4+ T cells were prepared by magnetic bead sorting. NKT cells are characterized by expression of CD4 and recognition of antigen presented by CD1d molecule. A tetramer of CD1d was obtained from a commercial supplier and loaded with 15 aminoacid long FVIII peptides, which included peptides containing SEQ ID1, SEQ ID2 and SEQ ID3.
Hemophilia A mice were immunized with 2 IU Factor VIII on 4 occasions separated by one week. The spleen was then removed and CD4+ T cells were prepared by magnetic bead sorting. A fluorochrome-labeled tetramer of CD1d was obtained from a commercial supplier and loaded with 15 aminoacid long FVIII peptides, which included peptides containing SEQ ID1, ID2 and ID3. Loading was carried out at room temperature overnight in the dark.
Tetramers were then incubated for 30 minutes at 4° C. with the CD4+ T cell population and the cell suspension was analyzed by Facs.

hemophilia A mice = experiment: direct immunization of hemophilia A mice with peptides containing a CD1d motif; assay type: in vivo; settings: direct immunization with peptide
Procedure: Hemophilia A mice were immunized 3 times subcutaneously with 50 μg of an equimolar mixture of peptides of SEQ ID1 (44pept) and peptide of SEQ ID2 (256pept) adsorbed on aluminum hydroxyde. A control group received physiological serum instead of peptides. Plasma was taken 10 days after the last immunization and assessed for the presence of anti-Factor VIII antibodies, using a direct binding assay. Briefly, Factor VIII (10 IU/ml) was insolubilized on polystyrene plates, which were washed and incubated with a 1/10 dilution of plasma. After a further washing, a HRP-labeled goat anti-mouse antiserum was added, followed by an enzyme substrate. Colour development was read as OD.

NKT cells [5] = experiment: JAWS2 cells loaded with Der p 1, production of IFN-gamma and IL-4 as markers of NKT activation; assay type: cell-based; settings: JAWS2 cells loaded with the protein; cells from mice immunized with natural sequence Der p 1
Procedure: CD4+ T cells obtained from the above experiments were incubated in culture medium in the presence of an antigen-presenting cell which expresses the CD1d molecule. […] JAWS2 cells were loaded with Der p 1 and presentation of Der p 1-derived epitopes by CD1d was evaluated by measuring the production of cytokines such as IFN-gamma and IL-4 as markers of NKT activation.
Further, mutated Der p 1 (SEQ ID16) was used to load JAWS2 cells and tested for its capacity to activate NKT cells. For this experiment, NKT cells were used as obtained from mice immunized with Der p 1 in either natural or mutated configuration. The production of IFN-gamma and IL-4 was taken as an indication of NKT activation.

[6] = dendritic cells and NKT cells of an individual sensitized to Mal d 1
[7] = alpha-gliadin polypeptide presented by antigen-presenting dendritic cells, same procedure as for Mal d 1

For “HSAIAAVI (listed as Dermatophagoides pteronyssinus) [SEQ ID14, aminoacids 135-141 of Der p 1]”, the “percentage of CD4+ T cells stained with CD1d tetramers loaded with peptide” value (“percentage of CD4+ T cells stained” for short) (CD4+ NKT cells) was roughly 10%.

“FKLIESY (listed as Malus domestica) [SEQ ID9, synthetic peptide, aminoacids 144-150 of Mal d 1]” was tested, and the “recognition of peptide-loaded human CD1d tetramers by NKT cells” value (NKT cells [1]) was “recognized by a significant proportion of NKT cells” and the “activation of NKT cells” value (NKT cells [2]; [6]) was “activated a significant proportion of NKT cells”.

For “FRVVSVL (listed as Homo sapiens) [SEQ ID19, CH2 of IgG2 and IgG3]”, the “proportion of NKT cells labeled by tetramers” value (shortened to “proportion … by tetramers”) (NKT cells [3]) was roughly 10%.

“YRVVSVL (listed as Homo sapiens) [SEQ ID18, CH2 of IgG1 and IgG4]” was tested, and the “proportion … by tetramers” value (NKT cells [3]) was roughly 10%.

“FWKVQHH (listed as Homo sapiens) [SEQ ID2, FVIII A3 domain aminoacids 1816-1822 CD1d motif; tested as 15 aminoacid long FVIII peptide containing it]” was tested, and the “binding of CD1d tetramers loaded with peptide” value (NKT cells [4]) was “Significant binding” and the “activation of NKT cells” value (hemophilia A mice) was “sufficient as to elicit the activation of NKT cells”.

With “FCHISSH (listed as Homo sapiens) [SEQ ID1, FVIII A1 domain aminoacids 309-315 CD1d motif; tested as 15 aminoacid long FVIII peptide containing it]” the “% of NKT cells recognizing peptide-loaded CD1d tetramers” value (NKT cells [4]; FIG. 1, CD4+ T cells of hemophilia A mice immunized with Factor VIII) was “Up to 45%”, the “binding of CD1d tetramers loaded with peptide” value (NKT cells [4]) was “Significant binding” and the “activation of NKT cells” value (hemophilia A mice) was “sufficient as to elicit the activation of NKT cells; also recorded: Prominent activation”.

For “SKLIESS (listed as Malus domestica) [SEQ ID10, synthetic peptide of Mal d 1 motif with F144S and Y150S mutations]”, the “proportion of NKT cells recognizing peptide-loaded human CD1d tetramers” value (NKT cells [1]) was “less than 1%” and the “activation of NKT cells” value (NKT cells [2]; [6]) was “did not”.

With “FSGVAAT (listed as Dermatophagoides pteronyssinus) [SEQ ID13, aminoacids 38-44 of Der p 1]” the “percentage of CD4+ T cells stained” value (CD4+ NKT cells) was roughly 10%.

With “FHAINGY [SEQ ID3, FVIII A3 domain aminoacids 1918-1924 CD1d motif; tested as 15 aminoacid long FVIII peptide containing it]” the “binding of CD1d tetramers loaded with peptide” value (NKT cells [4]) was “Significant binding” and the “activation of NKT cells” value (hemophilia A mice) was “sufficient as to elicit the activation of NKT cells”.

With “HEALHNH (listed as Homo sapiens) [SEQ ID20, CH3 loop of IgG1, IgG2 and IgG4]” the “proportion … by tetramers” value (NKT cells [3]) was roughly 10%.

With “YPYVVIL (listed as Dermatophagoides pteronyssinus) [SEQ ID15, aminoacids 216-222 of Der p 1]” the “percentage of CD4+ T cells stained” value (CD4+ NKT cells) was roughly 10%.

B1: SEQ ID11: alpha-gliadin polypeptide, natural sequence with CD1d binding motif (protein, listed as Homo sapiens)
chain: MVRVPVPQLQPQNPSQQQPQEQVPLVQQQQFPGQQQPFPPQQPYPQPQPFPSQQPYLQLQPFPQPQLPYPQPQLPYPQPQLPYPQPQPFRPQQPYPQSQPQYSQPQQPISQQQQQQQQQQQQKQQQQQQQQILQQILQQQLIPCRDVVLQQHSIAYGSSQVLQQSTYQLVQQLCCQQLWQIPEQSRCQAIHNVVHAIILHQQQQQQQQQQQQPLSQVSFQQPQQQYPSGQGSFQPSQQNPQAQGSVQPQQLPQFEEIRNLALETLPAMCNVYIPPYCTIAPVGIFGTNYR
With B1 the “activation of NKT cells” value (NKT cells [2]; [7]) was “activated a significant proportion of NKT cells”.

B2: SEQ ID12: mutated form of alpha-gliadin in which the F residue of the motif was substituted by S (protein, listed as Homo sapiens)
chain: B1 chain with Y56S, Y167S, H191S, F254S, Y276S
B2 was tested, and the “activation of NKT cells” value (NKT cells [2]; [7]) was “failed to do so”.

B3: Der p 1: cysteine protease, main allergen of house dust mite D. pteronyssinus, natural sequence (protein, listed as Dermatophagoides pteronyssinus)
chain: ETNACSINGNAPAEIDLRQMRTVTPIRMQGGCGSCWAFSGVAATESAYLAYRNQSLDLAEQELVDCASQHGCHGDTIPRGIEYIQHNGVVQESYYRYVAREQSCRRPNAQRFGISNYCQIYPPNVNKIREALAQTHSAIAVIIGIKDLDAFRHYDGRTIIQRDNGYQPNYHAVNIVGYSNAQGVDYWIVRNSWDTNWGDNGYGYFAANIDLMMIEEYPYVVIL
In the case of B3, the “NKT activation (production of IFN-gamma and IL-4)” value (NKT cells [5]) is reported as “significant production of cytokines”.

B4: SEQ ID16: mature Der p 1 with P1 anchoring residues F38S, H135S and Y216S mutated (protein, listed as Dermatophagoides pteronyssinus)
chain: B3 chain with F38S, H136S, Y217S
In the case of B4, the “binding of CD4+ T cell splenocytes to tetramers loaded with peptide of SEQ ID13, SEQ ID14 or SEQ ID15” value (CD4+ NKT cells; mice given the protein by nasal instillation) is reported as “no significant binding” and the “NKT activation (production of IFN-gamma and IL-4)” value (NKT cells [5]) is reported as “failed to be activated”.
